Data: ChEMBL document CHEMBL1136839, “3,4-Disubstituted isothiazoles: novel potent inhibitors of VEGF receptors 1 and 2” (Bioorg Med Chem Lett, 2009)

Tests used:
[1] = biological target: Serine/threonine-protein kinase PLK1 (Homo sapiens) (UniProt P53350); assay: Inhibition of Plk1 at 10 uM by HTRF assay
[2] = biological target: T1, Vascular endothelial growth factor receptor 2 (Homo sapiens, UniProt P35968); assay: Inhibition of VEGFR2 assessed as blockade of pGAT-biotin phosphorylation in presence of 2 uM ATP by HTRF assay
[3] = biological target: Vascular endothelial growth factor receptor 1 (Homo sapiens, UniProt P17948); assay: Inhibition of VEGFR1 assessed as blockade of pGAT-biotin phosphorylation in presence of 2 uM ATP by HTRF assay
Chain of Vascular endothelial growth factor receptor 1 (P17948 whole entry): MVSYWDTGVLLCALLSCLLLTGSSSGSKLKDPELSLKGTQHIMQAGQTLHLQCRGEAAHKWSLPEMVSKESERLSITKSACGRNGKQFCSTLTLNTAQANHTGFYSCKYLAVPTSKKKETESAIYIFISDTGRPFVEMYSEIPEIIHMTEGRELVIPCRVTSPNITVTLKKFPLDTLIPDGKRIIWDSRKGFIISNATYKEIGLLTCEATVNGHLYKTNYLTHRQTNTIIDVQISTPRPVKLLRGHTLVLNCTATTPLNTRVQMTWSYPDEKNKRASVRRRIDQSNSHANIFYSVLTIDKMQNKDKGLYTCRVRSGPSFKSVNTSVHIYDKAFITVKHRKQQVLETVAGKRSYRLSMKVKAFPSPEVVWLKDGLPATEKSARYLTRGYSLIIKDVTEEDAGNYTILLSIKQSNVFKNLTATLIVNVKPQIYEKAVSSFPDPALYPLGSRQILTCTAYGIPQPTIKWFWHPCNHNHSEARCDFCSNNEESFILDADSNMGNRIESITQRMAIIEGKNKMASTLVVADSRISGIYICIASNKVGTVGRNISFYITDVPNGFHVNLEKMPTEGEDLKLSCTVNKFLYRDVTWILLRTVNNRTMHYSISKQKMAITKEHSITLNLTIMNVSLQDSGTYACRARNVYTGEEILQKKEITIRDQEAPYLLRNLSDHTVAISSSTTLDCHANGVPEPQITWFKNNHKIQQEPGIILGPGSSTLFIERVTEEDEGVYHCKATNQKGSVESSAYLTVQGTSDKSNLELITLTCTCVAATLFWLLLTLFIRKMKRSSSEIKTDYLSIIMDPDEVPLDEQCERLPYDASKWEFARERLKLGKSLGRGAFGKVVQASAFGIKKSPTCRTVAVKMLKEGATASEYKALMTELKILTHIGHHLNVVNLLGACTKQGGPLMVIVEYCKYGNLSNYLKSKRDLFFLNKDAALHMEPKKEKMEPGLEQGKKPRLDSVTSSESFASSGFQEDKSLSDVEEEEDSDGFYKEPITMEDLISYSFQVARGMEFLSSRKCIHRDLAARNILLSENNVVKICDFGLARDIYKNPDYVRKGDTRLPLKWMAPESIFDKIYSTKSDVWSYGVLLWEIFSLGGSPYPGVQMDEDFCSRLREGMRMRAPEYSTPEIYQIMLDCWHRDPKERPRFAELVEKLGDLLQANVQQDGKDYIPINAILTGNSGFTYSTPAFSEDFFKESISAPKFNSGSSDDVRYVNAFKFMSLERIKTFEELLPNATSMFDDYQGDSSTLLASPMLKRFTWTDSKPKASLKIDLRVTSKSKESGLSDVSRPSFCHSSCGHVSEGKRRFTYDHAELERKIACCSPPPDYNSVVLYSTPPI

[4] = biological target: T1, Vascular endothelial growth factor receptor 2; assay: Inhibition of VEGFR2 expressed in HEK293 cells assessed as inhibition of receptor phosphorylation by ELISA; assay type: cell-based
[5] = biological target: Insulin-like growth factor 1 receptor (Homo sapiens) (UniProt P08069); assay: Inhibition of IGF1R at 10 uM by HTRF assay
[6] = biological target: Insulin receptor (Homo sapiens) (UniProt P06213); assay: Inhibition of InR at 10 uM by HTRF assay
Chain of Insulin receptor (Homo sapiens) (P06213 28-758 limits assumed): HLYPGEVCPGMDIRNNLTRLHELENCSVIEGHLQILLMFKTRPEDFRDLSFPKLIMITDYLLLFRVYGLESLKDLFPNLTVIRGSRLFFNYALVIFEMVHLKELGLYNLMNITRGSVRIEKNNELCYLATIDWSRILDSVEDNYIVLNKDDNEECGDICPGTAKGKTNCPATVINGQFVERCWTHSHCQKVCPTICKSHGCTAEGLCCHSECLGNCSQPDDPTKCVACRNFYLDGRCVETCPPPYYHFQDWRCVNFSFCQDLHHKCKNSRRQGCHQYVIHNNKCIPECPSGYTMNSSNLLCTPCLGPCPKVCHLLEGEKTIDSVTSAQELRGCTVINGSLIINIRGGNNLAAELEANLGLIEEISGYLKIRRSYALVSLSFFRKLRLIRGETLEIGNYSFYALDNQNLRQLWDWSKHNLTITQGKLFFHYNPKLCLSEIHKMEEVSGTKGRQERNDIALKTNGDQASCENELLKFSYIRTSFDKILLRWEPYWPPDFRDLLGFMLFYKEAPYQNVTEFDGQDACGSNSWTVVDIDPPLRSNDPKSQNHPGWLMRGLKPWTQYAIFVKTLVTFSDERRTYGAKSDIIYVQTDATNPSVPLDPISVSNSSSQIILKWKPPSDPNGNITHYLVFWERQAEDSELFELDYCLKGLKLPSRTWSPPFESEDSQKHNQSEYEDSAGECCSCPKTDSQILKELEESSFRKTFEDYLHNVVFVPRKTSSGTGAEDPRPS
Chain of Insulin receptor (Homo sapiens) (P06213 763-1382 limits assumed): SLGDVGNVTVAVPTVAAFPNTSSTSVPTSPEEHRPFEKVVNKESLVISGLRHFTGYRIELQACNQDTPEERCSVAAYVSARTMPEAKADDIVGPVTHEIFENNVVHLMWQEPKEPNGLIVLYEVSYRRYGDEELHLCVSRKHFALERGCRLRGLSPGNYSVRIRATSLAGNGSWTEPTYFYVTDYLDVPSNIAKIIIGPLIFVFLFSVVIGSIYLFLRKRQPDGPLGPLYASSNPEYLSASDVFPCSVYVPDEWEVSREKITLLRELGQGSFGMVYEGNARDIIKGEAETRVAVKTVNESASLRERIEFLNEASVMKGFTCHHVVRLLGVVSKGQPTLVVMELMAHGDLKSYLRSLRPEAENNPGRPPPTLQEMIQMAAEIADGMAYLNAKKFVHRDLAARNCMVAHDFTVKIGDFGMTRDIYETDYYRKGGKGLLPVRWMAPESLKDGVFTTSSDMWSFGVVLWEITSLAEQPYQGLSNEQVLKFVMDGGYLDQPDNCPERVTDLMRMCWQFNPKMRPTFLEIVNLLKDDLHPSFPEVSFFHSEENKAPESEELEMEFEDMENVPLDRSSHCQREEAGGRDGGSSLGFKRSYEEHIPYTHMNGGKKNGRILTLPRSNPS

[7] = biological target: Fibroblast growth factor receptor 1 (Homo sapiens) (UniProt P11362); assay: Inhibition of FGFR1 at 10 uM by HTRF assay
Chain of Fibroblast growth factor receptor 1 (Homo sapiens) (P11362 22-822 limits assumed): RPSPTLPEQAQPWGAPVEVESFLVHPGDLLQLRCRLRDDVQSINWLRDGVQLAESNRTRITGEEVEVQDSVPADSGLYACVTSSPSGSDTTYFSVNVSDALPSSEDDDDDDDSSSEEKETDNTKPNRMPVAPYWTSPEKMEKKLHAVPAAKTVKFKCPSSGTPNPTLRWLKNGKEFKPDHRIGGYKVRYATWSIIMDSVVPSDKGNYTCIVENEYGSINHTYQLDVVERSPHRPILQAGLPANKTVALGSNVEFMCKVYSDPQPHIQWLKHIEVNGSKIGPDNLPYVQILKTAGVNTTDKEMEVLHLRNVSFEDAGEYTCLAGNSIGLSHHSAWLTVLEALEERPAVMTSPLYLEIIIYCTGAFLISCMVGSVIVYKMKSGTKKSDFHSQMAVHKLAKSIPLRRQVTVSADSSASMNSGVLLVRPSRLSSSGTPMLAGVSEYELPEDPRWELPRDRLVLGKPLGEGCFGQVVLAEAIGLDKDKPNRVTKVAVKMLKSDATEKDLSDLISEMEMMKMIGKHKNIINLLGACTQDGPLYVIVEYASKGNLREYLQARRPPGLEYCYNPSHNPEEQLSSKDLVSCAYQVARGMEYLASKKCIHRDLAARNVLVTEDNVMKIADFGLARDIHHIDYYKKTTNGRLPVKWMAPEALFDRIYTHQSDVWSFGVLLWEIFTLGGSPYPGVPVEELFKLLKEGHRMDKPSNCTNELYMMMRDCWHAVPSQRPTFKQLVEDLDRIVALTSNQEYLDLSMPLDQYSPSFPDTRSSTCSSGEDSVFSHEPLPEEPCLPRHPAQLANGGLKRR

[8] = biological target: Receptor-type tyrosine-protein kinase FLT3 (Homo sapiens) (UniProt P36888); assay: Inhibition of Flt3 at 10 uM by HTRF assay
[9] = biological target: Epidermal growth factor receptor (Homo sapiens) (UniProt P00533); assay: Inhibition of EGFR at 10 uM by HTRF assay
[10] = biological target: Receptor tyrosine-protein kinase erbB-2 (Homo sapiens) (UniProt P04626); assay: Inhibition of ErbB2 at 10 uM by HTRF assay
[11] = biological target: Hepatocyte growth factor receptor (Homo sapiens) (UniProt P08581); assay: Inhibition of cMET at 10 uM by HTRF assay
[12] = biological target: Macrophage-stimulating protein receptor (Homo sapiens) (UniProt Q04912); assay: Inhibition of Ron at 10 uM by HTRF assay
[13] = Inhibition of PKA at 10 uM by HTRF assay
[14] = biological target: Glycogen synthase kinase-3 beta (Homo sapiens) (UniProt P49841); assay: Inhibition of GSK3-beta at 10 uM by HTRF assay
Chain of Glycogen synthase kinase-3 beta (Homo sapiens) (P49841 whole entry, looked up, the tested form may be a part): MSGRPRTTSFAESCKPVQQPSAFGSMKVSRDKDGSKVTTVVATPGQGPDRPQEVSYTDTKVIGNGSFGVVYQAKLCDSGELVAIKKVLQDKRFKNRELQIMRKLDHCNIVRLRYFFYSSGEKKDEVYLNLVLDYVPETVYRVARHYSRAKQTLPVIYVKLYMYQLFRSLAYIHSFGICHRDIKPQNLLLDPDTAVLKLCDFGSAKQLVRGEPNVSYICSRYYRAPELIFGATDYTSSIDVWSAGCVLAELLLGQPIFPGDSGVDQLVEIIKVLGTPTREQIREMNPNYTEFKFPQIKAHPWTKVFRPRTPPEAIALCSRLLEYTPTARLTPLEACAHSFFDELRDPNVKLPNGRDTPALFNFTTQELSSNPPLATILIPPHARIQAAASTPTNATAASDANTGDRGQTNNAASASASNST

[15] = biological target: Bcr/Abl fusion protein (Homo sapiens) (UniProt P00519+P11274); assay: Inhibition of bcr-Abl at 10 uM by HTRF assay; assay type: protein assay
[16] = biological target: Cyclin-dependent kinase 1 (Homo sapiens) (UniProt P06493); assay: Inhibition of CDK1 at 10 uM by HTRF assay
[17] = biological target: Cyclin-dependent kinase 2 (Homo sapiens) (UniProt P24941); assay: Inhibition of CDK2 at 10 uM by HTRF assay
[18] = biological target: Proto-oncogene tyrosine-protein kinase Src (Homo sapiens) (UniProt P12931); assay: Inhibition of Src at 10 uM by HTRF assay
Chain of Proto-oncogene tyrosine-protein kinase Src (Homo sapiens) (P12931 2-536 limits assumed): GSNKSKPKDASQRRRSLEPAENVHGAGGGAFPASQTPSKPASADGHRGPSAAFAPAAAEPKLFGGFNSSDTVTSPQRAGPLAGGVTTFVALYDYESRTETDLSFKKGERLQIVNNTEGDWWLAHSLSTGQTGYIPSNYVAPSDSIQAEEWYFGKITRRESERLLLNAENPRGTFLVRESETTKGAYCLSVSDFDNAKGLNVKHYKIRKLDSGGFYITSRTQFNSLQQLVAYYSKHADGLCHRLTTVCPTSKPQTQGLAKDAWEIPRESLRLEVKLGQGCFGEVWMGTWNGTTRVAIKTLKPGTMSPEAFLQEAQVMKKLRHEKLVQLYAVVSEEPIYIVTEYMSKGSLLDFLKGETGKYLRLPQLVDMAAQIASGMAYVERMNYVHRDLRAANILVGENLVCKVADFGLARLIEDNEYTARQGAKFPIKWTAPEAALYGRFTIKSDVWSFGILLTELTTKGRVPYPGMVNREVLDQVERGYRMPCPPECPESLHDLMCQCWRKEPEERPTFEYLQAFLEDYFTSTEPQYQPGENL

[19] = biological target: T2, Aurora kinase A (Homo sapiens) (UniProt O14965); assay: Inhibition of Aurora A at 10 uM by HTRF assay
T2 sequence (whole entry): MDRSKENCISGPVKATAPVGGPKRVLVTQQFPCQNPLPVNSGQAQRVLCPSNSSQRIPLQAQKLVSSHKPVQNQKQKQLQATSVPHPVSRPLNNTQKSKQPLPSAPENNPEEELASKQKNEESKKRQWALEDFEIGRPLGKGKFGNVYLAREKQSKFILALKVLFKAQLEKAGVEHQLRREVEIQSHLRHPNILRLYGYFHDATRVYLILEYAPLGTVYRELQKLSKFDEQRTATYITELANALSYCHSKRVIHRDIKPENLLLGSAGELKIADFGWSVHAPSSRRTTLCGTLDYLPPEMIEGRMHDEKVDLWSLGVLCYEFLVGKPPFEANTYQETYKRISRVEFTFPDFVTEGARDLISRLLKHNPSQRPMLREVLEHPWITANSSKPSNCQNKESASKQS

[20] = biological target: Aurora kinase B (Homo sapiens) (UniProt Q96GD4); assay: Inhibition of Aurora B at 10 uM by HTRF assay
[21] = Inhibition of Bcr-Abl T315 mutant at 10 uM by HTRF assay
[22] = Intrinsic permeability across human Caco-2 cells

Chain of Serine/threonine-protein kinase PLK1 (Homo sapiens) (P53350 whole entry): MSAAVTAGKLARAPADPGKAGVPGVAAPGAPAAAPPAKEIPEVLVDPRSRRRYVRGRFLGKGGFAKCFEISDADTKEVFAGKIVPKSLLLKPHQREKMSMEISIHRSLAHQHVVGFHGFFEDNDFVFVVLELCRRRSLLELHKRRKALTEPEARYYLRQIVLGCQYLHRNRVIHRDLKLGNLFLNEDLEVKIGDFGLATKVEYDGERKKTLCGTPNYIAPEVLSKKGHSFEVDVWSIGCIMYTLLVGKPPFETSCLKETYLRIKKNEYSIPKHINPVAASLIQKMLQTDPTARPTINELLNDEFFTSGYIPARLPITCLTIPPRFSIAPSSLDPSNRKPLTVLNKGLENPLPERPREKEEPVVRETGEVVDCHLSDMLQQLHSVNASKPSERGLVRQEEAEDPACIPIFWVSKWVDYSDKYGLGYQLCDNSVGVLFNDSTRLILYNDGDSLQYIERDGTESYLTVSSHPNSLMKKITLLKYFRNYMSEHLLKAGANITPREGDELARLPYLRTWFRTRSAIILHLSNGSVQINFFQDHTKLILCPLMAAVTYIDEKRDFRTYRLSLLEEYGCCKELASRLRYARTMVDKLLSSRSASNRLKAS

inhibition [1]	IC50 [2]	IC50 [3]	IC50 [4]	inhibition [5]	inhibition [6]	inhibition [7]	inhibition [8]	inhibition [9]	inhibition [10]	inhibition [11]	inhibition [12]	inhibition [13]	inhibition [14]	inhibition [15]	inhibition [16]	inhibition [17]	inhibition [18]	inhibition [19]	inhibition [21]	also measured	SMILES
< 30%	43 nM	190 nM	56 nM	< 30%	< 30%	< 30%	< 30%	< 30%	< 30%	< 30%	< 30%	< 30%	< 30%	< 30%	< 30%	< 30%	< 30%	< 30%	< 30%	inhibition [20]: < 30%; Papp [22]: 5.9 ×10⁻⁶ cm/s	Cc1ccc(NC(=O)c2nscc2NCc2ccncc2)cc1C(F)(F)F
< 30%	890 nM	1800 nM	2050 nM	< 30%	< 30%	< 30%	< 30%	< 30%	< 30%	< 30%	< 30%	< 30%	< 30%	< 30%	< 30%	< 30%	< 30%	< 30%	< 30%	inhibition [20]: < 30%	O=C(Nc1ccc(C(F)(F)F)c(Cl)c1)c1nscc1NCc1ccncc1
< 30%	440 nM	380 nM	770 nM	< 30%	< 30%	< 30%	< 30%	< 30%	< 30%	< 30%	< 30%	< 30%	< 30%	< 30%	< 30%	< 30%	< 30%	< 30%	< 30%	inhibition [20]: < 30%	O=C(Nc1ccc2ccccc2n1)c1nscc1NCc1ccncc1
< 30%	> 10000 nM	> 10000 nM	> 10000 nM	< 30%	< 30%	< 30%	< 30%	< 30%	< 30%	< 30%	< 30%	< 30%	< 30%	< 30%	< 30%	< 30%	< 30%	< 30%	< 30%	inhibition [20]: < 30%	O=C(Nc1cccc(Br)c1)c1nscc1NCCc1ccc2c(c1)OCO2
–	–	–	–	< 30%	< 30%	< 30%	< 30%	< 30%	< 30%	< 30%	< 30%	< 30%	< 30%	< 30%	< 30%	< 30%	< 30%	–	< 30%	Papp [22]: 5.58 ×10⁻⁶ cm/s	CC(C)(C)c1cccc(NC(=O)c2nscc2NCc2ccncc2)c1
–	–	–	–	< 30%	< 30%	< 30%	< 30%	< 30%	< 30%	< 30%	< 30%	< 30%	< 30%	< 30%	< 30%	< 30%	< 30%	–	< 30%	Papp [22]: 2.72 ×10⁻⁶ cm/s	O=C(Nc1cccc(C(F)(F)F)c1)c1nscc1NCc1ccnc2ccccc12
< 30%	> 10000 nM	> 10000 nM	> 10000 nM	< 30%	< 30%	< 30%	< 30%	< 30%	< 30%	< 30%	< 30%	< 30%	< 30%	< 30%	< 30%	< 30%	< 30%	< 30%	< 30%	inhibition [20]: < 30%	O=C(Nc1cccc(C(F)(F)F)c1)c1nscc1NCc1ccccn1
< 30%	> 10000 nM	> 10000 nM	> 10000 nM	< 30%	< 30%	< 30%	< 30%	< 30%	< 30%	< 30%	< 30%	< 30%	< 30%	< 30%	< 30%	< 30%	< 30%	< 30%	< 30%	inhibition [20]: < 30%	O=C(Nc1cccc(Br)c1)c1nscc1NCc1ccc2ccccc2n1
< 30%	650 nM	700 nM	790 nM	< 30%	< 30%	< 30%	< 30%	< 30%	< 30%	< 30%	< 30%	< 30%	< 30%	< 30%	< 30%	< 30%	< 30%	< 30%	< 30%	inhibition [20]: < 30%	O=C(NCc1ccc2c(c1)OCO2)c1nscc1NCc1ccncc1
< 30%	27 nM	55 nM	210 nM	< 30%	< 30%	< 30%	< 30%	< 30%	< 30%	< 30%	< 30%	< 30%	< 30%	< 30%	< 30%	< 30%	< 30%	< 30%	< 30%	inhibition [20]: < 30%	O=C(Nc1cccc(Br)c1)c1nscc1NCc1ccncc1
< 30%	> 10000 nM	> 10000 nM	> 10000 nM	< 30%	< 30%	< 30%	< 30%	< 30%	< 30%	< 30%	< 30%	< 30%	< 30%	< 30%	< 30%	< 30%	< 30%	< 30%	< 30%	inhibition [20]: < 30%	O=C(Nc1cccc(C(F)(F)F)c1)c1nscc1NCCc1ccc2c(c1)OCO2
–	–	–	–	< 30%	< 30%	< 30%	< 30%	< 30%	< 30%	< 30%	< 30%	< 30%	< 30%	< 30%	< 30%	< 30%	< 30%	–	< 30%	Papp [22]: 3.58 ×10⁻⁶ cm/s	O=C(Nc1cccc(Br)c1)c1nscc1NCc1ccnc2ccccc12
< 30%	33 nM	260 nM	41 nM	< 30%	< 30%	< 30%	< 30%	< 30%	< 30%	< 30%	< 30%	< 30%	< 30%	< 30%	< 30%	< 30%	< 30%	< 30%	< 30%	inhibition [20]: < 30%; Papp [22]: 7.93 ×10⁻⁶ cm/s	O=C(Nc1cccc(OC(F)(F)F)c1)c1nscc1NCc1ccncc1
